One experiment relates to A. baumannii ATCC 19606. In words: Bacterial viability assay. The class given is cell-based, Acinetobacter baumannii. The settings on record: Acinetobacter baumannii, ATCC19606, 1 h, one hour in PBS, CFU, ± SEM. As to the method:
(§1) Supplementary file pone.0097742.s003.doc: Table S1 Bacterial viability assays. Bacteria were grown at 37°C to mid-log phase (OD600 ∼0.4). The bacteria were diluted to approximately 10^4 to 10^5 colony forming units (CFU) per milliliter and added to a solution of phosphate buffered saline (PBS, 16 mM phosphate, 0.14 M NaCl, pH 7.2) containing the compound at varied concentrations. Samples were incubated at 37°C for one hour and then plated on Luria Bertani (LB) agar at appropriate dilutions in PBS. The plates were incubated overnight at 37°C and colonies enumerated the following day. IC50s were calculated from graphs of CFU as a function of compound concentration. Chlorhexidine was used as a positive control. […] (DOC) Click here for additional data file.
(§2) Bacterial viability assays. Bacteria were grown at 37°C to mid-log phase (OD600 ~0.4). The bacteria were diluted to approximately 10^4 to 10^5 colony forming units (CFU) per milliliter and added to a solution of phosphate buffered saline (PBS, 16 mM phosphate, 0.14 M NaCl, pH 7.2) containing the compound at varied concentrations. Samples were incubated at 37°C for one hour and then plated on Luria Bertani (LB) agar at appropriate dilutions in PBS. The plates were incubated overnight at 37°C and colonies enumerated the following day. IC50s were calculated from graphs of CFU as a function of compound concentration. Chlorhexidine was used as a positive control.

Experiment [1] has as its system A. baumannii ATCC BAA1605. In words: Bacterial viability assay. The class given is cell-based, Acinetobacter baumannii. The settings on record: Acinetobacter baumannii, ATCCBAA1605, 1 h, one hour in PBS, CFU, ± SEM. As to the method: as §1, §2
For the next experiment, the system named is MRSA strain LAC, USA300. Kind of experiment: Minimum inhibitory concentration (microdilution). The format is cell-based, Staphylococcus aureus. As to the method: Minimum inhibitory concentration (MIC) values were determined for those compounds showing the most antibacterial activity in the bacterial viability assays (see Supplemental Materials) against each of the strains of bacteria using a microdilution method in 96 well plates with LB media according to guidelines published by the British Society for Antimicrobial Chemotherapy. Minimum bactericidal concentrations (MBC) were determined by plating 10 µL and 100 µL from each well showing no signs of growth after overnight incubation of the MIC plates and determining the minimum concentration showing a 3-log reduction of viable bacteria. MIC and MBC were also determined in cation-adjusted Mueller-Hinton broth (Hardy Diagnostics, Santa Maria, CA) for some compounds and strains.
Background: Broth dilution looks for growth in wells or tubes with falling amounts of substance.

The next experiment concerns E. coli K91. Kind of experiment: Bacterial viability assay. The class given is cell-based, Escherichia coli. The settings on record: Escherichia coli, 1 h, one hour in PBS, CFU, ± SEM. The procedure: as §1, §2
A further experiment has as its system E. faecalis MSU#10. In words: Bacterial viability assay. The class given is cell-based, Enterococcus faecalis. The settings on record: Enterococcus faecalis, 1 h. The procedure:
as §1, §2

In another experiment the test system is E. faecalis V583. Kind of experiment: Bacterial viability assay. The class given is cell-based, Enterococcus faecalis. The settings on record: Enterococcus faecalis, 1 h, one hour in PBS, CFU, ± SEM. The procedure: as §1, §2
The next experiment deals with MRSA USA300. In words: Bacterial viability assay. The class given is cell-based, Staphylococcus aureus. The settings on record: Staphylococcus aureus, 1 h, one hour in PBS, CFU, ± SEM. The procedure: as §1, §2
In a further experiment the test system is E. coli. Kind of experiment: Time-to-kill (kill curve) assay. The class given is cell-based, Escherichia coli. The procedure: Bacteria were cultured to mid-log phase (OD600 ∼0.4) in LB media with shaking and then diluted to approximately 10^4 to 10^5 CFU/mL. Bacteria were then treated with compound at the MIC, 2×MIC, and 4×MIC (as determined by the MIC assays). Over the course of 24 hours, bacteria were incubated at 37°C and aliquots removed at various time intervals, diluted, and plated on LB agar. Plated bacteria were incubated overnight at 37°C and CFU/mL were calculated for each time interval.

Another experiment deals with S. aureus RN4220. In words: Bacterial viability assay. The settings on record: Staphylococcus aureus, 1 h, one hour in PBS, CFU, ± SEM. The format is cell-based, Staphylococcus aureus. As to the method:
(§3) Supplementary file pone.0097742.s003.doc: Table S1 Bacterial viability assays. Bacteria were grown at 37°C to mid-log phase (OD600 ∼0.4). The bacteria were diluted to approximately 10^4 to 10^5 colony forming units (CFU) per milliliter and added to a solution of phosphate buffered saline (PBS, 16 mM phosphate, 0.14 M NaCl, pH 7.2) containing the compound at varied concentrations. Samples were incubated at 37°C for one hour and then plated on Luria Bertani (LB) agar at appropriate dilutions in PBS. The plates were incubated overnight at 37°C and colonies enumerated the following day. IC50s were calculated from graphs of CFU as a function of compound concentration. Chlorhexidine was used as a positive control. Included are those guanide (G), biguanide (BG), phenylguanide (ΦG) compounds that had some antibacterial activity in an initial screen at 30 and 100 µM, as well as their and parent amines. Compounds synthesized from 1,4-butanediamine, 1,6-hexanediamine, trisethylaminomelamine, trisbutylaminomelamine, and the dendrimer PAMAM (G0) were not active against E. coli, P aeruginosa, or S. aureus so they were not tested against the remaining bacteria (data not shown). (DOC) Click here for additional data file.
as §3, with “Bacterial” for “Supplementary file pone.0097742.s003.doc: Table S1 Bacterial”, “~0.4).” for “∼0.4).”, “μM,” for “µM,”, “shown).” for “shown). (DOC) Click here for additional data file.”

The subject of another experiment is P. aeruginosa PA01. Kind of experiment: Bacterial viability assay. The format is cell-based, Pseudomonas aeruginosa. The settings on record: Pseudomonas aeruginosa, 1 h, one hour in PBS, CFU, ± SEM. As to the method: as §1, §2
Setting [2] is: Staphylococcus aureus, MRSA USA300, LB media, median of at least 3 determinations, read-out: MIC.

Values after ≈ are worked out from the molar mass of the structure shown. Like-named read-outs stand apart in the source and are kept apart here.

Usually IC50 stands for the concentration at which inhibition is half-maximal. The term MIC denotes the smallest concentration in the dilution series that meets the test's criterion for growth inhibition.

Consider `[H]/N=C(\N/C(=N/[H])NCCCCCCNC(=N)NC(=N)Nc1ccc(Cl)cc1)Nc1ccc(Cl)cc1` [Chlorhexidine, chlorhexidine, reference compound], for which the IC50 was found to be 1.3 ± 0.2 µM in the experiment with A. baumannii ATCC 19606; 0.78 ± 0.31 µM in experiment [1]; 1.7 ± 0.6 µM in the experiment on E. coli K91; 14 ± 6 µM in the experiment on E. faecalis MSU#10; 16 ± 6 µM in the experiment with E. faecalis V583; 13 µM with MRSA USA300. Also, the results for the IC50 in the experiment with S. aureus RN4220 and with P. aeruginosa PA01 were 0.86 ± 0.21 µM and 2.6 ± 0.5 µM, respectively. Moreover, the MIC in the experiment on MRSA strain LAC, USA300 (MRSA USA300, MHB, median) was 0.67 µg/mL (≈ 1.33 µM); with MRSA strain LAC, USA300 (setting [2]), 1 µg/mL (≈ 1.98 µM). In addition, the “time after which no viable cells remained” value in the experiment with E. coli (2 mg/L) came to 6 h. Moreover, in the experiment on E. coli (2 mg/L, within 4 hours of treatment), the “reduction in CFU/mL” value is reported as greater than 3 log.
Turning to `N=C(NCCCCCCNc1nc(NCCCCCCNC(=N)Nc2ccccc2)nc(NCCCCCCNC(=N)Nc2ccccc2)n1)Nc1ccccc1` [THAM-3ΦG, Trishexylaminomelamine trisphenylguanide], the IC50 was 0.86 ± 0.25 µM with A. baumannii ATCC 19606; 4.3 ± 1 µM in [1]; 3.8 ± 1.6 µM in the experiment with E. coli K91; 2.8 ± 0.6 µM with E. faecalis MSU#10 (E. faecalis MSU#10, one hour in PBS, CFU, ± SEM, read-out: IC50); 65 ± 1 µM with E. faecalis V583; 3.9 ± 0.5 µM with MRSA USA300. Also, the results for the IC50 in the experiment with S. aureus RN4220 and in the experiment with P. aeruginosa PA01 were 1.7 ± 0.9 µM and 4.5 ± 2.5 µM, respectively. Moreover, the MIC was 1 µg/mL (≈ 1.29 µM) with MRSA strain LAC, USA300 (MRSA USA300, MHB, median); 2 µg/mL (≈ 2.57 µM) with MRSA strain LAC, USA300 (setting [2]); roughly 1 µg/mL (≈ 1.29 µM) in the experiment with MRSA strain LAC, USA300 (Staphylococcus aureus, against MRSA, as stated in the abstract, read-out: MIC). Moreover, the “time to kill all the cells” value with E. coli (4×MIC (32 mg/L)) is 24 h. The “reduction in CFU/mL” value with E. coli (4×MIC (32 mg/L), only after 4 hours of treatment) is listed as greater than 3 log.

These data come from PMC4026384, “Antibacterial Activity of THAM Trisphenylguanide against Methicillin-Resistant Staphylococcus aureus” (PLoS ONE, 2014).
